Results reported in the pKa sets of Baltruschat and Czodrowski (2020).

details: acidic group

pKa | Structure (SMILES)
2.5 | [NH3+][C@@H](CCCCN1C(=O)C[C@H]([NH3+])C1=O)C(=O)O
4.2 | Cc1cccc2oc(=O)cc(O)c12
8.64 | Oc1ccc(Cl)c2ccccc12
3.96 | O=C(O)c1cccc(S)c1
1.37 | O=C(O)c1c(Br)cccc1[N+](=O)[O-]
6.75 | C[n+]1cccc(/C=C(/O)c2ccccc2)c1
1.79 | O=C(O)C#CC[NH+]1CCOCC1
1.71 | O=C(O)c1cc[nH+]cc1
6.91 | Nc1cc[nH+]c2c(O)cccc12
9.54 | CCc1cccc2ccc(O)cc12
9.12 | CCCCN(C(=O)c1ccc(O)cc1)c1ccc(/N=N/c2ccc3c(c2)OCCOCCOCCOCCOCCO3)cc1
11.1 | N#CCC(=O)NN
3.4 | O=C(O)/C=C(\I)c1ccccc1
11.3 | CCC(C(C)=O)C(C)=O
13 | O=C1CC(Sc2ccc([N+](=O)[O-])cc2)N1 (centres undefined)
7.06 | Nc1ccc(S(=O)(=O)Nc2cccnn2)cc1
8.23 | CC[NH+](CC)Cc1cc(F)ccc1O
4.36 | Oc1ccccc1-c1nnn[nH]1
9.38 | Cc1ccc2c(c1)C([P+](c1ccccc1)(c1ccccc1)c1ccccc1)c1ccccc1-2 (centres undefined)
3.08 | CC(=O)NC(CS)C(=O)O (centres undefined)
4.3 | O=C1O[C@@H]([C@H](O)[C@@H](O)[C@@H](O)CO)C(O)=C1O
9.45 | O=S(=O)([O-])c1c(O)ccc2cn[nH]c12
8.99 | C[NH+](C)CCCCCCCCCNC(=O)/C=N/O
4.11 | O=C(O)C1(O)CCCC1

pKa | Structure (SMILES)
10.7 | O=C([O-])/C=C\c1ccccc1O
7.7 | O=C(NO)c1cccc2ccccc12
3.55 | CO[C@H]1O[C@H](C(=O)O)[C@H](O)[C@H](O)[C@H]1O
12.3 | CCOC(=O)c1ccccc1-n1nc(O)cc1C
9.34 | CCOC(=O)c1ccc(O)cc1
4.76 | CO[C@H]1C[C@H]1C(=O)O
10.2 | O=C([O-])CS
3.8 | O=C(O)/C=C\C(=O)NOCc1ccccc1
0.68 | N#CC1C=CN(Cc2cccc(F)c2)C=C1C(N)=O (centres undefined)
8.68 | C[NH+](C)CCCNC(=O)/C=N/O
3.57 | O=C(O)C1CC1(Br)Br (centres undefined)
2.12 | Oc1[nH+]cnc2ccccc12
8.87 | Nc1nc(C(F)(F)F)c2[nH]cnc2n1
10.3 | COC(=O)c1ccccc1O
4.7 | [NH3+]C(CC(=O)[O-])C(=O)NC(CC(=O)O)C(=O)[O-] (centres undefined)
11 | CN(C)Cc1ccccc1O
5.8 | Nc1ccc(S(=O)(=O)Nc2cnc(Cl)nc2)cc1
7.32 | NC(=O)C1=CN2CCC1CC2
8.52 | Cc1cccc(C(=O)N(C)O)c1
9.33 | Nc1cncnc1N
6.5 | Nc1ccc(S(=O)(=O)Nc2ncco2)cc1
4.54 | O=C(O)[C@H]1C[C@@H]1c1ccccc1
4.09 | Cc1c(Cl)ccc2c1nnn2O
4.22 | CC(C(=O)O)c1ccc(-c2ccccc2)c(F)c1 (centres undefined)

The remaining lines, values behind:

Structure (SMILES) | pKa
Sc1cccc(Cl)c1 | 5.76
O=C1O[C@@H]([C@H](O)[C@@H](O)[C@@H](O)CO)C([O-])=C1O | 12
Oc1ccc2cnncc2c1 | 7.95
Cc1cc([N+](=O)[O-])ccc1O | 7.1
O=C(O)c1ccc(F)cc1 | 4.16
Cc1cc(C(C)(C)C)c(O)c(C(C)(C)C)c1 | 12.6
CNC[C@H](O)c1cccc(O)c1 | 9.84
O=C(O)C(CO)[NH2+]Cc1cc([N+](=O)[O-])ccc1O (centres undefined) | 2.15
Oc1ccc(OCc2ccccc2)cc1 | 10.5
CC1=C(O)C(O)=CC1 | 9.11
N#CC(C#N)=NNc1ccccc1[N+](=O)[O-] | 5.8
O=C(O)c1ccc(CCl)cc1 | 4.13
C=CC[NH+](C)CCCNC(=O)/C=N/O | 8.48
CC(C)O | 16.1
Sc1ccc(Cl)cc1 | 5.82
[O-]c1cccc2c1-c1c(O)cccc1-2 | 11
CC(C)(C)c1cc([N+](=O)[O-])cc(C(C)(C)C)c1O | 6.92
O=C1OCC(O)=C1O | 4.4

Structure (SMILES) | pKa
Oc1cc2ccccc2n[nH+]1 | 0.21
C/C(O)=C/C(=O)O | 4.05
C#CC(=O)O | 1.89
CNc1cccc[n+]1O | 2.61
Oc1cc[nH+]c(O)c1 | 1.37
N#CC(C#N)c1ccc([N+](=O)[O-])cc1 | 2.35
Oc1ccc2cccc(Br)c2c1 | 8.94
CC(=O)NBr | 8.1
O=C(O)c1ccc2cc3ccccc3cc2c1 | 4.18
COC(=O)CS | 7.57
[O-]c1ccc(O)cc1 | 11.6
O=C(O)C1CC1(Cl)Cl (centres undefined) | 3.51
O=[N+]([O-])/C=C/c1ccc(O)cc1 | 7.98
Nc1nc([O-])c2nc[nH]c2n1 | 12.6
Cc1cc2nc[nH]c2cc1C | 12.5
Sc1ccc(Cl)c(Cl)c1 | 5.48
C[n+]1cccc(CC(=O)c2ccccc2)c1 | 11

same assay, conditions: basic group

pKa | Structure (SMILES)
7.2 | CNc1c2ccccc2nc2cccc([N+](=O)[O-])c12
8.13 | CCN(CC)CC(=O)Nc1ccc(C)cc1
5.7 | Cn1ccnc1-c1ccccn1
4.71 | CCN(CC)c1ncnc2[nH]ncc12

The remaining lines, values behind:

Structure (SMILES) | pKa
Oc1ccc2cnncc2c1 | 3.94
Cc1cnc2c(ccc3c(C)c(C)cnc32)c1C | 6.31
